Values joined by “and” are separate entries in the source; they are usually repeats but may differ in a detail not shown here. Equal entries are not always repeated.
Experiments:
Type in all cases: cell-based
Aspergillus niger (An) = assay: Fungal efficacy testing, modified ASTM 5590 (12-well, dry paint film); details: three weeks
Description: (§1) Samples of white acrylic latex paint free of biocides were prepared in 50 ml aliquots. Each biocide was post added to give the necessary active ingredient concentration in the paint. The total biocides concentrations tested were 750, 1500, 2500 and 5000 ppm. After biocides addition, each sample was hand mixed for a minimum of 30 sec, followed by a 3 min run on the paint shaker (RED DEVIL). Each of the paint samples as well as a control sample (containing no biocide) were used to prepare films on black plastic-vinyl chloride/acetate copolymer panels (LENETA, Mahwah, N.J.) using a 3 mil bird bar applicator. The panels were thoroughly dried for 5 days avoiding direct exposure to sunlight. Square discs (15 mm^2) were cut out from each panel and were used as the substrate for fungal and algal efficacy tests. This sample size allowed for an agar border when the sample disc was placed into the well of the test plate.
(§2) The appropriate media (BOLD'S 3N for Chlorophytes, BG-11 for Cyanobacteria, and PDA for fungi) were used to support microbial growth. The test plates were maintained at room temp (25° C.-26° C.), in a cycled light-dark environment, for 3 weeks for algae. Plates for fungal challenge tests were maintained at 30C for three weeks. At the end of incubation period the samples were scored for percent area covered by visible microbial growth.
ASTM 5590 is a standard accelerated test method for determining resistance of various coatings (including paints) to fungal defacement. To accommodate for high-throughput screening, this method was scaled down from petri plates to 12-well plates. To set up the test, an agar plug was placed at the bottom of each well of the sterile 12-well plate. A single coupon was placed with a pair of sterile forceps at the center of the agar plug (on top) with the painted surface facing upwards. Each well was inoculated with 150 μl of organism (1×10^6 cfu/ml) making sure that the whole surface (paint film as well as the agar surrounding it) was evenly covered. The plates were incubated at 30° C. in presence of moisture, for a period of three weeks. The total percent area covered was evaluated and recorded at the end of each week after the 2nd week and recorded in increments of 5%. […]

[1] = system: Alternaria alternata (Aa); assay: as above; details: at the Total conc, three weeks
Description: as §1, §2
(§3) ASTM 5590 is a standard accelerated test method for determining resistance of various coatings (including paints) to fungal defacement. To accommodate for high-throughput screening, this method was scaled down from petri plates to 12-well plates. To set up the test, an agar plug was placed at the bottom of each well of the sterile 12-well plate. A single coupon was placed with a pair of sterile forceps at the center of the agar plug (on top) with the painted surface facing upwards. Each well was inoculated with 150 μl of organism (1×10^6 cfu/ml) making sure that the whole surface (paint film as well as the agar surrounding it) was evenly covered. The plates were incubated at 30° C. in presence of moisture, for a period of three weeks. The total percent area covered was evaluated and recorded at the end of each week after the 2nd week and recorded in increments of 5%.
(§4) The SI is calculated based on F. C. Kull et.

Trichoderma viride (Tv) = assay: as above; details: three weeks
Description: as §1, §2, §3, §4

[2] = system: Aureobasidium pullulans (Ap); assay: as above; details: at the Total conc, three weeks
Description: as §1, §2, §3, §4

[3] = system: Stachybotris chartarum (Sc); assay: as above; details: three weeks
Description: as §1, §2, §3, §4

[4] = system: Penicillium funiculosum (Pf); assay: as above; details: at the Total conc, three weeks
Description: as §1, §2, §3, §4

[5] = system: Cladosporium herbarum (Ch); assay: as above; details: at the Total conc, three weeks
Description: as §1, §2, §3, §4

Nostoc commune (Nc) = assay: Algal efficacy testing, modified ASTM 5589 (12-well, dry paint film); details: three weeks
Description: as §1, §2
(§5) ASTM 5589 is a standard accelerated test method for determining resistance of various coatings (including paints) to algal defacement. To accommodate for high-throughput screening, this method was scaled down from petri plates to 12-well plates. A single coupon was placed with a pair of sterile forceps at the center of the agar plug (on top) with the painted surface facing upwards. Each well was inoculated with 150 μl of organism (1×10^8 cfu/ml) making sure that the whole surface (paint film as well as the agar surrounding it) was evenly covered. The plates were incubated at room temp (25° C.-26° C.) with cyclic exposure to light (OTT-Lite model #OTL4012P, 40 Watt, 26 KLumen) and dark phases, for a period of three weeks. The total area covered was evaluated at the end of each week according to percent area covered in 5% increments. While rating the plates, notations were made for zones of inhibition.
as §4

Oscillatoria sp. (Os) = assay: as above; details: at the Total conc, three weeks
Description: as §1, §2, §5, §4

Gleocapsa sp. (Gs) = assay: as above; details: at the Total conc, three weeks
Description: as §1, §2, §5, §4

[6] = system: Calothrix parientina (Cp); assay: as above; details: three weeks
Description: as §1, §2, §5, §4

[7] = system: Trentepohlia aurea + Trentepohlia odorata (Ta + To); assay: as above; details: three weeks
Description: as §1, §2, §5, §4

[8] = system: Chlorella sp. + Chlorella kessleri (Cs + Ck); assay: as above; details: at the Total conc, three weeks
Description: as §1, §2, §5, §4

[9] = system: Ch + Tv (Cladosporium herbarum + Trichoderma viride); assay: Fungal efficacy testing, modified ASTM 5590 (6-well, mixed inoculum, Example 4); details: four weeks; for Total conc, ppm: Ch + Tv mixed inoculum, NE = no end point at the concentration tested; for % inhibition: Ch + Tv, at the Total conc
Description: [The source words this procedure for another target and reports this target under the same test.] as §4
(§6) A single or blend of biocides was post added into white acrylic latex paint free of biocides to give a maximum total active ingredient/s concentration tested. This paint was then diluted with a biocide free acrylic latex paint at concentrations range of 75 to 12.5% w/w to give desired concentrations for the testing. Depending on the type of biocide blends tested, the total biocides concentrations varies from 200 to 5000 ppm. After biocides addition or dilution each sample was hand mixed for at least a minute until uniformity is achieved. Each of the paint samples as well as a control sample (containing no biocide) were used to prepare films on black plastic-vinyl chloride/acetate copolymer panels (LENETA, Mahwah, N.J.) using a 3 mil bird bar applicator. The panels were thoroughly dried for at least 2 days avoiding direct exposure to sunlight. Square discs (0.5 inch^2, 13 mm^2) were cut out from each panel and were used as the substrate for fungal and algal efficacy tests. This sample size allowed for an agar border when the sample disc was placed into the well of the test plate. Each sample was tested in duplicate
as §2, with “for four” for “for 3”, “at 30 C” for “at 30C”, “for four” for “for three”, “of the” for “of”
as §3, with “6-well” for “12-well”, “upwards. Fungal inoculums were prepared by mixing equal concentrations (1×10^6 cfu/ml) and equal volumes (depending on number of samples to be tested) of like growing organisms. Cladosporium herbarum was mixed with Aureobasidium pullulans. Aspergillus niger was mixed with Penicillium funiculosum. Alternaria alternata was mixed with Trichoderma viride.” for “upwards.”, “400” for “150”, “organism mixture” for “organism”, “four” for “three”

[10] = system: Aa + Ap (Alternaria alternata + Aureobasidium pullulans); assay: as above; details: four weeks; for Total conc, ppm: Aa + Ap mixed inoculum, NE = no end point at the concentration tested; for % inhibition: Aa + Ap, at the Total conc
Description: [The source words this procedure for another target and reports this target under the same test.] as §4, §6
as §2, with “for four” for “for 3”, “at 30 C” for “at 30C”, “for four” for “for three”, “of the” for “of”
as §3, with “6-well” for “12-well”, “upwards. Fungal inoculums were prepared by mixing equal concentrations (1×10^6 cfu/ml) and equal volumes (depending on number of samples to be tested) of like growing organisms. Cladosporium herbarum was mixed with Aureobasidium pullulans. Aspergillus niger was mixed with Penicillium funiculosum. Alternaria alternata was mixed with Trichoderma viride.” for “upwards.”, “400” for “150”, “organism mixture” for “organism”, “four” for “three”

[11] = system: An + Pf (Aspergillus niger + Penicillium funiculosum); assay: as above; details: four weeks; for Total conc, ppm: An + Pf mixed inoculum, NE = no end point at the concentration tested; for % inhibition: An + Pf, at the Total conc
Description: as §4, §6
as §2, with “for four” for “for 3”, “at 30 C” for “at 30C”, “for four” for “for three”, “of the” for “of”
as §3, with “6-well” for “12-well”, “upwards. Fungal inoculums were prepared by mixing equal concentrations (1×10^6 cfu/ml) and equal volumes (depending on number of samples to be tested) of like growing organisms. Cladosporium herbarum was mixed with Aureobasidium pullulans. Aspergillus niger was mixed with Penicillium funiculosum. Alternaria alternata was mixed with Trichoderma viride.” for “upwards.”, “400” for “150”, “organism mixture” for “organism”, “four” for “three”

[12] = system: Gs + Os (Gloeocapsa sp. + Oscillatoria sp.); assay: Algal efficacy testing, modified ASTM 5589 (6-well, mixed inoculum, Example 4); details: four weeks; for Total conc, ppm: Gs + Os mixed inoculum, NE = no end point at the concentration tested; for % inhibition: Gs + Os, at the Total conc
Description: as §6
as §2, with “for four” for “for 3”, “at 30 C” for “at 30C”, “for four” for “for three”, “of the” for “of”
as §5, with “6-well” for “12-well”, “upwards. Algal inoculums were prepared by mixing equal concentrations (1×10^6 cfu/ml) and equal volumes (depending on number of samples to be inoculated) of like growing organisms. In this study, Gloeocapsa sp. and Oscillatoria sp. were a mix of cyanobacteria grown on BG-11 media. Chlorella sp., Chlorella kessleri, and Nostoc commune are unicellular chlorphytes that were mixed and grown on Bold media. Trentepohlia aurea, Trentepohlia odorata, and Calotrix parientina are filamentous algae that were mixed and grown on Bold media.” for “upwards.”, “400” for “150”, “mixture (1×10^6” for “(1×10^8”, “four” for “three”

[13] = system: Cp + To + Ta (Calotrix parientina, Trentepohlia odorata, Trentepohlia aurea); assay: as above; details: four weeks; for Total conc, ppm: Cp + To + Ta mixed inoculum, NE = no end point at the concentration tested; for % inhibition: Cp + To + Ta, at the Total conc
Description: as §6
as §2, with “for four” for “for 3”, “at 30 C” for “at 30C”, “for four” for “for three”, “of the” for “of”
as §5, with “6-well” for “12-well”, “upwards. Algal inoculums were prepared by mixing equal concentrations (1×10^6 cfu/ml) and equal volumes (depending on number of samples to be inoculated) of like growing organisms. In this study, Gloeocapsa sp. and Oscillatoria sp. were a mix of cyanobacteria grown on BG-11 media. Chlorella sp., Chlorella kessleri, and Nostoc commune are unicellular chlorphytes that were mixed and grown on Bold media. Trentepohlia aurea, Trentepohlia odorata, and Calotrix parientina are filamentous algae that were mixed and grown on Bold media.” for “upwards.”, “400” for “150”, “mixture (1×10^6” for “(1×10^8”, “four” for “three”

[14] = system: Cs + Ck + Nc (Chlorella sp., Chlorella kessleri, Nostoc commune); assay: as above; details: four weeks; for Total conc, ppm: Cs + Ck + Nc mixed inoculum, NE = no end point at the concentration tested; for % inhibition: Cs + Ck + Nc, at the Total conc
Description: as §6
as §2, with “for four” for “for 3”, “at 30 C” for “at 30C”, “for four” for “for three”, “of the” for “of”
as §5, with “6-well” for “12-well”, “upwards. Algal inoculums were prepared by mixing equal concentrations (1×10^6 cfu/ml) and equal volumes (depending on number of samples to be inoculated) of like growing organisms. In this study, Gloeocapsa sp. and Oscillatoria sp. were a mix of cyanobacteria grown on BG-11 media. Chlorella sp., Chlorella kessleri, and Nostoc commune are unicellular chlorphytes that were mixed and grown on Bold media. Trentepohlia aurea, Trentepohlia odorata, and Calotrix parientina are filamentous algae that were mixed and grown on Bold media.” for “upwards.”, “400” for “150”, “mixture (1×10^6” for “(1×10^8”, “four” for “three”

[15] = total biocide in paint taken as minimum inhibitory concentration, 30 C
[16] = total biocide in paint taken as minimum inhibitory concentration

Compound	Total conc, ppm [9]	% inhibition [9]	Total conc, ppm [10]	% inhibition [10]	Total conc, ppm [11]	% inhibition [11]	Total conc, ppm [12]	% inhibition [12]	Total conc, ppm [13]	% inhibition [13]	Total conc, ppm [14]	% inhibition [14]	other results
CCCCNC(=O)OCC#CI [IPBC, 3-iodo-2-propynyl-butylcarbamate]	–	–	–	–	–	–	–	–	–	–	–	–	% inhibition (Aspergillus niger (An); at the Total conc): 87.5% and 80% and 75%; Total conc, ppm (Aspergillus niger (An); [15]): 2500 ppm and 1500 ppm; % inhibition [1]: 97.5% and 50% and 100%; % inhibition (Trichoderma viride (Tv); at the Total conc): 90% and 72.5% and 62.5%; Total conc, ppm (Trichoderma viride (Tv); [15]): 750 ppm and 1500 ppm; % inhibition [2]: 97.5% and 60% and 87.5%; % inhibition ([3]; at the Total conc): 82.5%; Total conc, ppm [3, 15]: 2500 ppm; % inhibition [4]: 97.5% and 60% and 70%; % inhibition [5]: 75% and 80%; % inhibition (Nostoc commune (Nc); at the Total conc): 87.5% and 90% and 80%; Total conc, ppm (Nostoc commune (Nc); [16]): 1500 ppm and 2500 ppm; % inhibition (Oscillatoria sp. (Os)): 70% and 62.5% and 77.5%; % inhibition (Gleocapsa sp. (Gs)): 95% and 50% and 80%; % inhibition ([6]; at the Total conc): 97.5% and 90% and 80%; Total conc, ppm [6, 16]: 2500 ppm and 5000 ppm; % inhibition ([7]; at the Total conc): 85% and 82.5% and 72.5%; Total conc, ppm [7, 16]: 2500 ppm and 1500 ppm; % inhibition [8]: 97.5% and 90% and 70%
CCCCCCCCn1sccc1=O [OIT, 2-n-octyl-4-isothiazolin-3-one]	450 ppm	50%	1350 ppm	100%	450 ppm	100%	1350 ppm	100%	1350 ppm	95%	1350 ppm	100%	–
c1ccc2[nH]c(-c3cscn3)nc2c1 [TBZ, thiabendazole]	2500 ppm	50%	3750 ppm	80%	625 ppm	100%	1875 ppm	100%	1875 ppm	95%	1250 ppm	100%	–
zinc pyrithione [ZPT]	–	–	2500 ppm	100%	1250 ppm	100%	625 ppm	100%	625 ppm	100%	1250 ppm	100%	–

— patent US8592405B2, “Synergistic antimicrobial composition” (Dow Global Technologies LLC, priority 2009, dated 2013)
